Assay: xn = mol fraction of the nth substance listed
Conditions: 100 kPa, Liquid; for viscosity: Falling or rolling sphere viscometry; for mass density: Vibrating tube method

C1CCC(C2CCCCC2)CC1 [1,1'-bicyclohexyl] + CCCCCCCCCCCC
Conditions	mass density, 293.15 K [kg/m3]	mass density, 298.15 K [kg/m3]	mass density, 303.15 K [kg/m3]	mass density, 308.15 K [kg/m3]	viscosity, 293.15 K [mPa·s]	viscosity, 298.15 K [mPa·s]	viscosity, 303.15 K [mPa·s]	viscosity, 308.15 K [mPa·s]	viscosity, 313.15 K [mPa·s]
x2 = 0	886.05	882.44	878.84	875.25	4.003	3.53	3.137	2.81	2.532
x2 = 0.1055	869.17	865.58	861.99	858.41	3.406	3.025	2.706	2.438	2.209
x2 = 0.2016	854.56	850.98	847.4	843.81	3	2.681	2.411	2.182	1.985
x2 = 0.3019	839.7	836.11	832.52	828.94	2.637	2.366	2.138	1.943	1.776
x2 = 0.398	825.91	822.33	818.74	815.15	2.369	2.136	1.938	1.766	1.618
x2 = 0.5006	811.71	808.14	804.55	800.96	2.166	1.955	1.777	1.624	1.492
x2 = 0.5953	798.95	795.38	791.78	788.19	1.998	1.811	1.652	1.513	1.393
x2 = 0.6911	786.49	782.91	779.31	775.71	1.839	1.672	1.529	1.405	1.298
x2 = 0.7985	772.97	769.38	765.77	762.15	1.697	1.548	1.417	1.305	1.206
x2 = 0.8888	761.97	758.37	754.75	751.13	1.62	1.466	1.331	1.223	1.131
